Results from EP0293500A1, “3-heteroalkyl-2,4.quinzaoline-diones” (AMERICAN CYANAMID COMPANY, priority 1987, dated 1988).
Structures can show the parent of a compound that is named as a salt.

Tests used:
thromboxane synthetase = target: T1, thromboxane synthetase (Rattus norvegicus, UniProt P49430); test: Inhibition of thromboxane (TX) formation (TXB2 radioimmunoassay) in washed rat platelets; format: cell-based, Okamoto-Aoki spontaneously hypertensive rats (SHR); settings: percent inhibition of TXB2 formation; drug at 10^-4M; SHR platelet suspension, 10 minutes at 37 C
T1 construct: The platelets were isolated by centrifuging the PRP for 10 minutes at 1060xg; from tissue; host or cells: washed blood platelets from Okamoto-Aoki spontaneously hypertensive rats (SHR)
T1 sequence (P49430 1-533): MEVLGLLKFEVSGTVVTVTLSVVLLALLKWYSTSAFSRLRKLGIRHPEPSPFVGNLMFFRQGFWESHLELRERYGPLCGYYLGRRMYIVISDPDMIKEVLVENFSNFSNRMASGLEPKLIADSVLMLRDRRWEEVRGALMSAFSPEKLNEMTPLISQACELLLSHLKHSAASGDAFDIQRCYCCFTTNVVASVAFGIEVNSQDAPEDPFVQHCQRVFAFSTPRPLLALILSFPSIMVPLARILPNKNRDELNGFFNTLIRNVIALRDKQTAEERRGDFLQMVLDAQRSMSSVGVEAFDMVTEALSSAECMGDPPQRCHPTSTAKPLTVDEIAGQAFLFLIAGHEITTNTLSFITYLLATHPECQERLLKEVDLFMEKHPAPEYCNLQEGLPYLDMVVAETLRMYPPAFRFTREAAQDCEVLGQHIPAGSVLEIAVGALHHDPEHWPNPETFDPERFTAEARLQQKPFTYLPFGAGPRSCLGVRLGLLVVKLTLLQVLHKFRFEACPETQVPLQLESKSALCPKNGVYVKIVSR
Source text: The platelet rich plasma (PRP) was separated. […] The inhibition of thromboxane (TX) formation was studied by determing the concentration of thromboxane […] (TXB2), the stable hydrolysis product of TXA2.

[1] = tested on: spontaneously hypertensive rats of the Okamoto strain; test: Hypotensive activity in spontaneously hypertensive rats (method of Chan and Poorvin); format: in vivo; settings: male SHR, average MABP 160±1.5 mm of mercury; gavage, 100 mg/kg or less, second identical dose 24 hours later; MABP at 28 hours after the initial dose; number of rats in brackets
Protocol: The novel compounds of the present invention are also active hypotensive agents and were tested for hypotensive activity by the method of P. S. Chan and b. Poorvin, Clinical and Experimental Hypertension, 1 (6), 817-830 (1979). Male, 16 week old, spontaneously hypertensive rats of the Okamoto strain, from Taconic Farms, Germantown, New York having an average mean arterial blood pressure of 160±1.5 mm of mercury were used in the test. […] A second identical dose of the test compound, without sodium chloride loading is given 24 hours later. At 28 hours after the initial dose, the mean arterial blood pressure (MABP) is measured by the method of Chan and Poorvin vide supra. The procedure is repeated in a second and third rat when necessary. The results of this test on representative compounds of the present invention appear in Table II below.

SMILES: CC(Cn1ccnc1)Cn1c(=O)[nH]c2cc(Cl)ccc2c1=O (stereo not drawn) [Example 42, 7-Chloro-3-[3-(1H-imidazol-1-yl)-2-methylpropy]-2,4(1H,3H)-quinazolinedione]
- inhibition at 100 µM (thromboxane synthetase): 75%
- MABP/mm Hg (no. of rats) [1]: 121(2) mm Hg

SMILES: O=c1[nH]c2c(Cl)cccc2c(=O)n1CCCCn1ccnc1 [Example 43, 8-Chloro-3-[4-(1H-imidazol-1-yl)butyl]-2,4(1H,3H)-quinazolinedione]
- inhibition at 100 µM (thromboxane synthetase): 62%
- MABP/mm Hg (no. of rats) [1]: 85(2) mm Hg

SMILES: CC(CCn1c(=O)[nH]c2c(Cl)cccc2c1=O)n1ccnc1 (stereo not drawn) [Example 44, 8-Chloro-3-[3-(1H-imidazol-1-yl)butyl]-2,4(1H,3H)-quinazolinedione]
- inhibition at 100 µM (thromboxane synthetase): 71%
- MABP/mm Hg (no. of rats) [1]: 112(2) mm Hg

SMILES: O=c1c2ccccc2nnn1CCCCn1ccnc1 [Example 75, 3-[4-(1 H-Imidazol-1-yl)butyl]-1,2,3-benzotriazin-4(3H)-one]
- inhibition at 100 µM (thromboxane synthetase): 68%
- MABP/mm Hg (no. of rats) [1]: 114(2) mm Hg

SMILES: O=c1c2cc(Cl)ccc2nnn1CCCn1ccnc1 [Example 76, 6-Chloro-3-[3-(1H-imidazol-1-yl)-propyl]-1,2,3-benzotriazin-4(3H)-one]
- inhibition at 100 µM (thromboxane synthetase): 74%
- MABP/mm Hg (no. of rats) [1]: 127(3) mm Hg

SMILES: Cl.O=c1c2cc(Br)ccc2nnn1CCCCn1ccnc1 [Example 82, 6-Bromo-3-[4-(1H-imidazol-1-yl)-butyl]-1,2,3-benzotriazin-4(3H)-one, monohydrochloride]
- inhibition at 100 µM (thromboxane synthetase): 96%
- MABP/mm Hg (no. of rats) [1]: 115(2) mm Hg

SMILES: Cc1ccc2nnn(CCCCn3ccnc3)c(=O)c2c1 [Example 84, 3-[4-(1H-Imidazol-1-yl)butyl]-6-methyl-1,2,3-benzotriazin-4(3H)-one]
- inhibition at 100 µM (thromboxane synthetase): 95%
- MABP/mm Hg (no. of rats) [1]: 106(2) mm Hg

SMILES: Cc1ccc2c(=O)n(CCCCn3ccnc3)nnc2c1C.Cl [Example 86, 3-[4-(1H-Imidazol-1-yl)butyl]-7,8-dimethyl-1,2,3-benzotriazin-4(3H)-one, monohydrochloride]
- inhibition at 100 µM (thromboxane synthetase): 93%
- MABP/mm Hg (no. of rats) [1]: 121(2) mm Hg

SMILES: CC(Cn1ccnc1)Cn1nnc2ccc([N+](=O)[O-])cc2c1=O.O (stereo not drawn) [Example 87, 3-[3-(1H-Imidazol-1-yl)-2-methyl-propyl]-6-nitro-1,2,3-benzo-triazin-4(3H)-one, hydrate]
- inhibition at 100 µM (thromboxane synthetase): 95%
- MABP/mm Hg (no. of rats) [1]: 114(2) mm Hg

SMILES: O=c1c2cc(Cl)ccc2nnn1CCCCCn1ccnc1 [Example 99, 6-Chloro-3-[5-(1H-imidazol-1-yl)pentyl]-1,2,3-benzotriazin-4(3H)-one]
- inhibition at 100 µM (thromboxane synthetase): 82%
- MABP/mm Hg (no. of rats) [1]: 117(2) mm Hg

SMILES: O=c1c2cc(Cl)ccc2nnn1CCCCCCn1ccnc1 [Example 100, 6-Chloro-3-[6-(1H-imidazol-1-yl)hexyl]-1,2,3-benzotriazin-4(3H)-one]
- inhibition at 100 µM (thromboxane synthetase): 73%
- MABP/mm Hg (no. of rats) [1]: 109(2) mm Hg

SMILES: O=c1c2ccccc2nnn1CCCCCn1ccnc1 [Example 101, 3-[5-(1H-Imida-zol-1-yl)pentyl]-1,2,3-benzotria-zin-4(3H)-one, monohydrochloride]
- inhibition at 100 µM (thromboxane synthetase): 67%
- MABP/mm Hg (no. of rats) [1]: 113(2) mm Hg

SMILES: O=c1c2ccccc2nnn1CCCCCCn1ccnc1 [Example 102, 3-[6-(1H-Imida-zol-1-yl)hexyl]-1,2,3-benzotria-zin-4(3H)-one, monohydrochloride]
- inhibition at 100 µM (thromboxane synthetase): 96%
- MABP/mm Hg (no. of rats) [1]: 87(2) mm Hg

SMILES: O=c1c2ccccc2ncn1CCCn1ccnc1 [Example 122, 3-[3-(1 H-Imidazol-1-yl)propyl]-4(3H)-quinazolinone]
- inhibition at 100 µM (thromboxane synthetase): 51%
- MABP/mm Hg (no. of rats) [1]: 139(2) mm Hg

SMILES: O=c1c2ccccc2ncn1CCCCn1ccnc1 [Example 123, 3-[4-(1H-Imidazol-1-yl)butyl]-4(3H)-quinazolinone, dihydro-chloride]
- inhibition at 100 µM (thromboxane synthetase): 83%
- MABP/mm Hg (no. of rats) [1]: 117(3) mm Hg

SMILES: O=c1c2cc(Cl)ccc2ncn1CCCCn1ccnc1 [Example 124, 6-Chloro-3-[4-(1H-imidazol-1-yl)-butyl]-4(3H)-quinazolinone, dihydro-chloride]
- inhibition at 100 µM (thromboxane synthetase): 99%
- MABP/mm Hg (no. of rats) [1]: 106(2) mm Hg

SMILES: O=c1c2cc(Br)ccc2ncn1CCCCn1ccnc1 [Example 125, 6-Bromo-3-[4-(1H-imidazol-1-yl)-butyl]-4(3H)-quinazolinone, dihydro-chloride]
- inhibition at 100 µM (thromboxane synthetase): 99%
- MABP/mm Hg (no. of rats) [1]: 121(2) mm Hg

SMILES: O=c1c2cc(Br)ccc2ncn1CCCn1ccnc1 [Example 126, 6-Bromo-3-[3-(1H-imidazol-1-yl)-propyl]-4(3H)-quinazolinone]
- inhibition at 100 µM (thromboxane synthetase): 99%
- MABP/mm Hg (no. of rats) [1]: 122(2) mm Hg

SMILES: Cc1ccc2ncn(CCC(C)n3ccnc3)c(=O)c2c1 (stereo not drawn) [Example 127, 3-[3-(1H-Imidazol-1-yl)butyl]-6-methyl-4(3H)-quinazolinone]
- inhibition at 100 µM (thromboxane synthetase): 87%
- MABP/mm Hg (no. of rats) [1]: 133(4) mm Hg

SMILES: CC(Cn1ccnc1)Cn1cnc2ccccc2c1=O.Cl.Cl (stereo not drawn) [Example 134, 3-[3-(1H-Imidazol-1-yl)-2-methylpropyl]-4(3H)-quinazolinone, dihydrochloride]
- inhibition at 100 µM (thromboxane synthetase): 100%
- MABP/mm Hg (no. of rats) [1]: 121(2) mm Hg

SMILES: O=c1c2cc(Cl)ccc2ncn1CCCn1ccnc1 [Example 138, 6-Chloro-[3-(1H-imidazol-1-yl)propyl]-4(3H)-quinazolinone]
- inhibition at 100 µM (thromboxane synthetase): 75%
- MABP/mm Hg (no. of rats) [1]: 100(2) mm Hg

SMILES: Cc1cn(CCCn2cnc3ccc(Cl)cc3c2=O)cn1 [Example 139, 6-Chloro-3-[3-(4-methyl-1H-imidazol-1-yl)propyl]-4(3H)-quinazolinone]
- inhibition at 100 µM (thromboxane synthetase): 89%
- MABP/mm Hg (no. of rats) [1]: 123(3) mm Hg

SMILES: CC(CCn1cnc2ccc(Cl)cc2c1=O)n1ccnc1 (stereo not drawn) [Example 140, 6-Chloro-3-[3-(1H-Imidazol-1-yl)butyl]-4(3H)-quinazolinone]
- inhibition at 100 µM (thromboxane synthetase): 100%
- MABP/mm Hg (no. of rats) [1]: 114(2) mm Hg

SMILES: O=c1c2cc(Cl)ccc2ncn1CCCCCCCCn1ccnc1 [Example 143, 6-Chloro-3-[8-(1H-imidazol-1-yl)octyl]-4(3H)-quinazolinone]
- inhibition at 100 µM (thromboxane synthetase): 70%
- MABP/mm Hg (no. of rats) [1]: 118(2) mm Hg
